Laboratory results published in US10590143B2, “Herbicidally active (alkynyl-phenyl)-substituted cyclic dione compounds and derivatives thereof” (Syngenta Limited, priority 2013, dated 2020).
Like-named read-outs stand apart in the source and are kept apart here.

Key:
Assay type in all cases: in vivo
[1] = tested on: Glycine max (GLXMA, soybean); assay: Biological Example 2 glasshouse assay for herbicidal activity; details: post-emergence, 360 h, 14 or 15 DAA, 0.2% v/v X-77, read-out: percentage phytotoxicity GLXMA
Procedure: (§1) Seeds of a variety of monocotyledonous and dicotyledonous test plants are sown in standard soil in pots. The plants are cultivated for one day (for pre-emergence) or for about 12 days (range=10-13 days) (for post-emergence) under controlled conditions in a glasshouse (warm climate species at 24/18° C., cool climate species at 20/16° C., both at day/night; 16 hours light; 65% humidity).
(§2) An “instant formulation”, known as the “IF50”, containing 50 g/litre (i.e. 5% w/v) of the “technical” (i.e. unformulated) active ingredient is prepared by dissolving the active ingredient in a mixture of organic solvents and emulsifier, details of which are provided in the Table below. This IF50 is then mixed with a small, variable amount of acetone to aid dissolution, before addition of a 0.2% v/v aqueous solution of the adjuvant X-77 (which is a mixture of alkyl aryl polyoxyethylene glycols and free fatty acids in isopropanol, CAS Registry number 11097-66-8), as the aqueous diluent, to form an aqueous spray solution which contains a predetermined concentration of the active ingredient (which varies depending on the application rate of the active ingredient to the plants) and 0.2% v/v of the adjuvant X-77. This aqueous spray solution is then sprayed onto the plants, after one day's cultivation (for pre-emergence) or after about 12 days' cultivation (for post-emergence).
(§3) The test plants are then grown on, in a glasshouse (greenhouse) under controlled conditions (at either 24/18° C. or 20/16° C. (day/night) as mentioned above; 16 hours light; 65% humidity) and are watered twice daily. Either 14 or 15 days after application of the herbicide (14 or 15 DAA) (for post-emergence), or 20 days after application of the herbicide (20 DAA) (for pre-emergence), the test plants are evaluated visually, and an assessed percentage phytotoxicity score is given for each herbicidal application on each plant species (where 100%=total damage to plant; 0%=no damage to plant).
(§4) Some of the typical test plants are as follows: • Cool climate crop plants: Triticum aestivum (TRZAW, winter wheat), Brassica napus (BRSNN, rape, also called oilseed rape or rapeseed), Beta vulgaris (BEAVA, sugarbeet). • Warm climate crop plants: Glycine max (GLXMA, soybean). • Cool climate (“cool season”) grassy monocotyledonous weeds: Alopecurus myosuroides (ALOMY), Avena fatua (AVEFA), Lolium perenne (LOLPE), Poa annua (POAAN), Bromus tectorum (BROTE). • Warm climate (“warm season”) grassy monocotyledonous weeds: Setaria faberi (SETFA), SORVU (Sorghum bicolor (L.) Moench ssp. Bicolor, or Sorghum vulgare Pers.), Digitaria sanguinalis (DIGSA), Echinochloa crus-galli (ECHCG), Brachiaria plantaginea (BRAPL); Zea mays (ZEAMX, corn, maize, e.g. volunteer corn).

[2] = tested on: Brassica napus (BRSNN, rape); assay: as above; details: Brassica napus, 360 h, post-emergence, 14 or 15 DAA, 0.2% v/v X-77, read-out: percentage phytotoxicity BRSNN
Procedure: as §1, §2, §3, §4

Setaria faberi (SETFA) [3] = assay: as above; details: post-emergence, 360 h, 14 or 15 DAA, 0.2% v/v X-77, read-out: percentage phytotoxicity SETFA
Procedure: as §1, §2, §3, §4

[4] = tested on: Echinochloa crus-galli (ECHCG); assay: Biological Example 1 glasshouse assay for herbicidal activity; details: Echinochloa crus-galli, 312 h, 13 days after application, read-out: percentage phytotoxicity ECHCG
How it was run: (§5)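 Weeds were sprayed pre-emergence (1 day after sowing) or post-emergence (8 days) with herbicide in acetone/water 50:50 plus 0.5% Tween 20. Plants grew in glasshouse at 24/16 °C, 14 h light, 65% humidity. Phytotoxicity was scored visually at 13 days (0–100%), usually one plant per species per rate.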

[5] = tested on: Alopecurus myosuroides (ALOMY); assay: as above; details: 312 h, 13 days after application, read-out: percentage phytotoxicity ALOMY
How it was run: as §5

[6] = tested on: Zea mays (ZEAMX, corn, maize, e.g. volunteer corn); assay: as above; details: Zea mays, 312 h, 13 days after application, read-out: percentage phytotoxicity ZEAMX
How it was run: as §5

Setaria faberi (SETFA) [7] = assay: as above; details: 312 h, 13 days after application, read-out: percentage phytotoxicity SETFA
How it was run: as §5

[8] = tested on: Abutilon theophrasti (ABUTH); assay: as above; details: 312 h, 13 days after application, read-out: percentage phytotoxicity ABUTH
How it was run: as §5

[9] = tested on: Amaranthus retroflexus (AMARE); assay: as above; details: Amaranthus retroflexus, 312 h, 13 days after application, read-out: percentage phytotoxicity AMARE
How it was run: as §5

SMILES | plant injury at 30 g/ha [1] | plant injury at 250 g/ha [1] | plant injury at 30 g/ha [2] | plant injury at 250 g/ha [2] | pest or weed control at 30 g/ha (Setaria faberi (SETFA) [3]) | pest or weed control at 250 g/ha (Setaria faberi (SETFA) [3]) | pest or weed control at 30 g/ha ([4]; post-emergence, post-emergence) | pest or weed control at 250 g/ha ([4]; post-emergence, post-emergence) | pest or weed control at 30 g/ha ([4]; pre-emergence, pre-emergence) | pest or weed control at 250 g/ha ([4]; pre-emergence, pre-emergence) | pest or weed control at 30 g/ha ([5]; post-emergence) | pest or weed control at 250 g/ha ([5]; post-emergence) | pest or weed control at 30 g/ha ([5]; pre-emergence) | pest or weed control at 250 g/ha ([5]; pre-emergence) | pest or weed control at 30 g/ha ([6]; post-emergence, post-emergence) | pest or weed control at 250 g/ha ([6]; post-emergence, post-emergence) | pest or weed control at 30 g/ha ([6]; pre-emergence, pre-emergence) | pest or weed control at 250 g/ha ([6]; pre-emergence, pre-emergence) | pest or weed control at 30 g/ha (Setaria faberi (SETFA) [7]; post-emergence, post-emergence) | pest or weed control at 250 g/ha (Setaria faberi (SETFA) [7]; post-emergence, post-emergence) | other results
CC#Cc1cc(F)c(C2C(=O)C3CCC(C3)C2=O)c(OC(F)F)c1 (stereo not drawn) [Compound A7] | 20% | 20% | 30% | 60% | 60% | 90% | 90% | 100% | 60% | 100% | 60% | 90% | 60% | 100% | 80% | 100% | 80% | 100% | 70% | 90% | plant injury at 125 g/ha ([1]; 125 g/ha): 20%; plant injury at 125 g/ha ([2]; 125 g/ha): 50%; pest or weed control at 125 g/ha (Setaria faberi (SETFA) [3]; 125 g/ha): 90%; pest or weed control at 30 g/ha (Setaria faberi (SETFA) [7]; pre-emergence, pre-emergence): 50%; pest or weed control at 250 g/ha (Setaria faberi (SETFA) [7]; pre-emergence, pre-emergence): 70%; pest or weed control at 30 g/ha ([8]; post-emergence, post-emergence): 0%; pest or weed control at 250 g/ha ([8]; post-emergence, post-emergence): 70%; pest or weed control at 30 g/ha ([8]; pre-emergence, pre-emergence): 20%; pest or weed control at 250 g/ha ([8]; pre-emergence, pre-emergence): 30%; pest or weed control at 30 g/ha ([9]; post-emergence, post-emergence): 50%; pest or weed control at 250 g/ha ([9]; post-emergence, post-emergence): 60%; pest or weed control at 30 g/ha ([9]; pre-emergence, pre-emergence): 40%; pest or weed control at 250 g/ha ([9]; pre-emergence, pre-emergence): 70%
CC#Cc1cc(F)c(C2=C(OC(=O)C(C)(C)C)C3CCC(C3)C2=O)c(OC)c1 (stereo not drawn) [Compound P1] | 0% | 20% | 10% | 80% | 80% | 90% | 100% | 100% | 90% | 100% | 90% | 100% | 70% | 100% | 100% | 100% | 90% | 100% | 80% | 100% | pest or weed control at 8 g/ha ([4]; post-emergence, post-emergence): 80%; pest or weed control at 8 g/ha ([5]; post-emergence): 60%; pest or weed control at 8 g/ha ([6]; post-emergence, post-emergence): 100%; pest or weed control at 8 g/ha (Setaria faberi (SETFA) [7]; post-emergence, post-emergence): 70%; pest or weed control at 30 g/ha (Setaria faberi (SETFA) [7]; pre-emergence, pre-emergence): 40%; pest or weed control at 250 g/ha (Setaria faberi (SETFA) [7]; pre-emergence, pre-emergence): 80%; pest or weed control at 8 g/ha ([8]; post-emergence, post-emergence): 0%; pest or weed control at 30 g/ha ([8]; post-emergence, post-emergence): 0%; pest or weed control at 250 g/ha ([8]; post-emergence, post-emergence): 80%; pest or weed control at 30 g/ha ([8]; pre-emergence, pre-emergence): 10%; pest or weed control at 250 g/ha ([8]; pre-emergence, pre-emergence): 30%; pest or weed control at 8 g/ha ([9]; post-emergence, post-emergence): 0%; pest or weed control at 30 g/ha ([9]; post-emergence, post-emergence): 10%; pest or weed control at 250 g/ha ([9]; post-emergence, post-emergence): 40%; pest or weed control at 30 g/ha ([9]; pre-emergence, pre-emergence): 50%; pest or weed control at 250 g/ha ([9]; pre-emergence, pre-emergence): 70%
CC#Cc1cc(F)c(C2=C(OC(=O)OC(C)C)C3CCC(C3)C2=O)c(OC)c1 (stereo not drawn) [Compound P3] | 0% | 0% | 10% | 80% | 100% | 100% | 100% | 100% | 80% | 100% | 80% | 100% | 70% | 100% | 100% | 100% | 80% | 100% | 80% | 100% | pest or weed control at 8 g/ha ([4]; post-emergence, post-emergence): 80%; pest or weed control at 8 g/ha ([5]; post-emergence): 60%; pest or weed control at 8 g/ha ([6]; post-emergence, post-emergence): 90%; pest or weed control at 8 g/ha (Setaria faberi (SETFA) [7]; post-emergence, post-emergence): 60%; pest or weed control at 30 g/ha (Setaria faberi (SETFA) [7]; pre-emergence, pre-emergence): 20%; pest or weed control at 250 g/ha (Setaria faberi (SETFA) [7]; pre-emergence, pre-emergence): 80%; pest or weed control at 8 g/ha ([8]; post-emergence, post-emergence): 10%; pest or weed control at 30 g/ha ([8]; post-emergence, post-emergence): 10%; pest or weed control at 250 g/ha ([8]; post-emergence, post-emergence): 80%; pest or weed control at 30 g/ha ([8]; pre-emergence, pre-emergence): 0%; pest or weed control at 250 g/ha ([8]; pre-emergence, pre-emergence): 10%; pest or weed control at 8 g/ha ([9]; post-emergence, post-emergence): 0%; pest or weed control at 30 g/ha ([9]; post-emergence, post-emergence): 0%; pest or weed control at 250 g/ha ([9]; post-emergence, post-emergence): 40%; pest or weed control at 30 g/ha ([9]; pre-emergence, pre-emergence): 30%; pest or weed control at 250 g/ha ([9]; pre-emergence, pre-emergence): 60%
